Test results: US20130189382A1, “Use of fucoxanthin in the preparation of product for improving memory and having neuroprotective effect associated with neurodegenerative disorder” (Beijing Gingko Group Biological Technology Co., Ltd., priority 2010, published 2013)
Marks after values point to notes of the source that are not given here.

Tests used:
[1] = test system: rat brain cortical neurons induced by Aβ25-35; test: SOD activity in culture medium of neurons damaged by Aβ25-35; format: cell-based
Text: Aβ25-35 and MTT, purchased from Sigma Company; T-AOC assay kit, MDA assay kit, GSH-PX assay kit and SOD assay kit, purchased from Nanjing Jiancheng Bioengineering Institute; and cell apoptosis fluorescent Hoechst33342/PI double staining reagent kit purchased from Nanjing KeyGEN Biotech Co., Ltd. […] Other detection indexes: […] Three experiments of different samples were repeated to detect each index of this experiment (except the Hoechst/PI double staining experiment and the experiment of cell morphological observation), and all results are obtained via the results of three experiments by using statistical analysis. The SOD activity can reflect ability of organisms to remove ROS indirectly. The influence of the reference substance A (A) and the coarse extracts thereof FX-01 powder (Fx-powder) and Fx-01 oil (Fx-oil) on the SOD activity in the culture medium of the rat brain cortical neuron model induced by Aβ25-35 is detected and the result is as shown in Table 2. […] The SOD activity is improved with the increase of drug concentrations.

[2] = test system: rat brain cortical neurons induced by Aβ25-35; test: MDA content in culture medium of neurons damaged by Aβ25-35; format: cell-based
Text: Aβ25-35 and MTT, purchased from Sigma Company; T-AOC assay kit, MDA assay kit, GSH-PX assay kit and SOD assay kit, purchased from Nanjing Jiancheng Bioengineering Institute; and cell apoptosis fluorescent Hoechst33342/PI double staining reagent kit purchased from Nanjing KeyGEN Biotech Co., Ltd. […] Other detection indexes: […] Three experiments of different samples were repeated to detect each index of this experiment (except the Hoechst/PI double staining experiment and the experiment of cell morphological observation), and all results are obtained via the results of three experiments by using statistical analysis. ROS is generated by organisms through the enzyme system and the non-enzyme system and the ROS is able to attack polyunsaturated fatty acids in biological membranes, and initiate lipid peroxidation to form lipid peroxides, such as MDA. Therefore, the amount of MDA can reflect the degree of lipid peroxidation in organisms, thereby indirectly reflecting the damage degree of cells attacked by free radicals. […] The Fx-powder can reduce the MDA content in the culture medium of the damaged neurons remarkably and is dose-dependent, and the protective effect of the Fx-powder increases with the increase of drug concentrations. The Fx-oil also has such effect to protect neurons from oxidative damage and is not evidently dose-dependent. The reference substance A presents certain protective effect at a low dose, but the effect is seemingly reversed at medium and high doses, along with an increase in the MDA content. However, there is no statistical difference compared with the model group.

[3] = test system: memory acquisition of mice; test: Step-through test, memory acquisition of mice; format: in vivo; details: 0.42 mg/kg·bw for 30 days
Experimental: (§1) 1.1 Material: pure fucoxanthin prepared by our company, and the recommended daily intake for a mouse is equal to the daily dose 4 mg of the human body, male Kuming mice, 6 to 8 weeks old, bodyweight ranging from 18 to 22 g.
(§2) 1.2 dose and group: take the daily dose, i.e. 4 mg of fucoxanthin of the human body as a dose group, turn the dose into the daily dose of the mice, and set a blank control group.
1.52 Step-through test: the selection of animals, the grouping in the test, the doses for the tested objects, the administration methods and the administration time are the same as those in the step-down test, and step-through training was conducted after administering the samples continuously for 30 days. During the experiment, make the mice face back to the entrance of a bright room and put the mice into the bright room, start a timer, the animals passed through the entrance, entered the […] and received electric shocks, stop the timer, take out the mice and record the time needed for each mouse to be put into the bright room and enter a dark room to receive the electric shocks, i.e. the latency, repeat the test 24 hours later at the same time, and record the latency for each mouse to enter the dark room, the number of errors within 5 minutes, and the number of animals that entered the dark room.
(§3) 1.6 Data processing: process the obtained data by utilizing an SPSS1010 statistic software package and employ analysis of variance and X^2 test in the statistic method. […]

[4] = test system: rat brain cortical neurons induced by Aβ25-35; test: T-AOC in culture medium of neurons damaged by Aβ25-35; format: cell-based
Text: Aβ25-35 and MTT, purchased from Sigma Company; T-AOC assay kit, MDA assay kit, GSH-PX assay kit and SOD assay kit, purchased from Nanjing Jiancheng Bioengineering Institute; and cell apoptosis fluorescent Hoechst33342/PI double staining reagent kit purchased from Nanjing KeyGEN Biotech Co., Ltd. […] Other detection indexes: […] Three experiments of different samples were repeated to detect each index of this experiment (except the Hoechst/PI double staining experiment and the experiment of cell morphological observation), and all results are obtained via the results of three experiments by using statistical analysis. The T-AOC can be measured to evaluate the antioxidant capacity of the total antioxidant substances in the system. […] The protective effect of the Fx-powder is improved with the increase of the drug concentrations. However, A and the Fx-oil are not dose-dependent although they can improve the T-AOC.

[5] = test system: memory acquisition of mice; test: Step-down test, memory acquisition of mice; format: in vivo; details: 0.42 mg/kg·bw by lavage for 30 days
Experimental: as §1, §2
1.51 Step-down test: select 20 male mice with a bodyweight of 18 to 22 g, randomly divide the mice into a blank control group and a medication group, administer fucoxanthin to the medication group by lavage, conduct step-down training to the mice after administering the sample to the mice continuously for 30 days, put the animals in a reaction tank for adaption for 3 minutes, introduce a 36V alternating current, and the normal reaction of the animals was to jump back to the insulated platform quickly. Most of the animals might jump onto the copper grids again or jump onto the copper grids for multiple times, and jump back onto the platform after receiving electric shocks. After training once, the animals were placed on the platform in the reaction tank, record the number of electric shocks (number of errors) received by each mouse within 5 minutes as the learning performance, retest 24 hours later, and record the number of animals that received the electric shocks, the latency for the animals to step down the platform for the first time, and number of errors within 3 minutes.
as §3

rat embryo neuron = details: literature 2001-335480A published in Japan; cited from earlier work
[6] = test system: rat brain cortical neurons induced by Aβ25-35; test: Neuron morphological detection by Hoechst/PI double staining; format: cell-based; details: compared with model group, FIG. 1
Experimental: The anti-AD activity of fucoxanthin is evaluated by detecting indexes including cell survival rate (MTT), cytomorphology, SOD, GSH-PX, T-AOC and MDA etc. SOD plays an important role in the balance between oxidation and anti-oxidization of organisms. The enzyme is able to remove superoxide anion free radicals and protect cells from damage, and the activity of the enzyme indirectly reflects the ability of organisms to remove ROS. GSH-PX, which is an important enzyme for catalyzing the decomposition of hydrogen peroxide in the body, is able to protect the integrity of cellular membrane structures and functions. The T-AOC can be measured to evaluate the antioxidant capacity of the total anti-oxidant substances in a system. The quantity of MDA reflects the degree of lipid peroxidation in organisms and may indirectly reflect the damage level of cells attacked by free radicals. Hoechst/Propidium Iodide (PI) double staining is applied to cell morphological observation: both PI and Hoechst33342 can bonde with cell nuclear Deoxyribonucleic Acid (DNA) (or Ribonucleic Acid (RNA)). However, PI fails to get through normal cellular membranes while Hoechst is a membrane-permeable fluorescent dye. Therefore, necrotic cells or cells whose cellular membranes are damaged during late apoptosis are stained red by PI while normal cells and cells in early apoptosis or mid-apoptosis are stained blue by Hoechst. However, nucleolus of apoptotic cell present a bright blue color due to concentration. Normal cells (blue), apoptotic cells (bright blue) and necrotic cells (red) can be distinguished according to different colors. However, the accompanying drawings in the specification are colorless, thus the colors are replaced by hollow rounds (blue), grey rounds (bright blue) and black rounds (red). […] Other detection indexes: […] […]

[7] = test system: rat brain cortical neurons induced by Aβ25-35; test: GSH-PX activity in culture medium of neurons damaged by Aβ25-35; format: cell-based
Text: Aβ25-35 and MTT, purchased from Sigma Company; T-AOC assay kit, MDA assay kit, GSH-PX assay kit and SOD assay kit, purchased from Nanjing Jiancheng Bioengineering Institute; and cell apoptosis fluorescent Hoechst33342/PI double staining reagent kit purchased from Nanjing KeyGEN Biotech Co., Ltd. […] Other detection indexes: […] Three experiments of different samples were repeated to detect each index of this experiment (except the Hoechst/PI double staining experiment and the experiment of cell morphological observation), and all results are obtained via the results of three experiments by using statistical analysis. Detect the influence of the reference substance A (A) and the coarse extracts thereof FX-01 powder (Fx-powder) and Fx-01 oil (Fx-oil) on the GSH-PX activity in the culture medium of the rat brain cortical neuron model induced by Aβ25-35, and the result is as shown in Table 3.

[8] = test system: rat brain cortical neurons induced by Aβ25-35; test: Cell survival rate by MTT method in neurons damaged by Aβ25-35; format: cell-based; details: control = 100%
Text: 1) kill zero to four-day old neonatal rats, immerse the rats in 75% alcohol for 2 to 3 seconds, put the rats in a sterile culture dish, take their brains, and place the brains in a sterile culture dish containing cold D-Hanks liquid, remove meninges and blood vessels, and isolate the cerebral cortex.
2) place the isolated tissues in a sterile culture dish containing a proper amount of 0.125% trypsin solution, cutting up the tissues into a size of about 0.5 mm*0.5 mm*0.5 mm, and place them for 5 minutes at room temperature.
3) transfer the tissue blocks to a 15 ml centrifugal tube, add a proper amount of DMEM-F12 culture medium containing 10% bovine serum to terminate digestion, blow gently with a bend suction pipe to obtain a single cell suspension.
4) filter the cells with a 400-mesh cell strainer.
5) perform centrifugation at 1000 rpm for 5 minutes, discard the supernatant, add a D-Hanks liquid to wash the cells, perform centrifugation at 1000 rpm for 5 minutes and discard the supernatant.
6) add a proper amount of DMEM-F12 culture medium containing 10% bovine serum, count the cells, according to a concentration of 1*10^5 cells/ml, inoculate cells in a 96-pore plate or a 24-pore plate, which applied with 10 μg/ml of polylysine as a basic layer, place the plate in a CO2 incubator and culture at 37 °C in a CO2 concentration of 5%.
7) 24 hours later, replace the culture medium with a DMEM-F12 culture medium containing 5 mg/L cytarabine and 10% bovine serum; 24 hours later, replace the culture medium with a DMEM-F12 culture medium containing 2% B-27 and 10% bovine serum; replace the culture medium with a DMEM-F12 culture medium containing 2% B-27 and 10% bovine serum every 2 days subsequently to change the solution.
A total of 8 experiment groups are set for cell survival rate detection, including a normal control group, a model group, 5 medicament groups of different concentrations (drug concentrations (the drug concentrations described herein refer to the dry weight of fucoxanthin): 0.39, 0.78, 1.56, 3.12 and 6.25 μg/ml) and a medicament control group (6.25 μg/ml). Other detection indexes: SOD, GSH-PX, T-AOC, MDA and cell morphological observation in which 5 experimental groups are set in total, including a normal control group, a model group and 3 medicament groups of different concentrations (drug concentrations: 0.39, 0.78 and 1.56 μg/ml).
Take cells cultured for 7 days, administer corresponding concentrations of the drug to the medicament groups, add an equal amount of a corresponding solvent to the control group and the model group, incubate for 16 hours, treat groups besides the control group with 5 μM of Aβ25-35 (pre-aged for 7 days at 37□) for 24 hours, take the cell culture medium to detect the T-AOC, the SOD, the MDA and the GSH-PX subsequently, and measure the cell survival rate by MTT method or perform morphological observation with a Hoechst/PI double staining experiment.
Determination of the cell survival rate by MTT method: culture the cells in a 96-pore plate, administer the drug to protect the cells for 16 hours, after damaging the cells by Aβ25-35 for 24 hours, add 5 mg/ml of MTT to the culture medium, continue to culture for 4 hours, terminate the culture, remove the culture medium through careful suction, add 200 μl of dimethyl sulfoxide to each pore, measure the absorbance of each pore at Optical Density (OD) 490 nm with an enzyme-labeled instrument after the crystals are completely dissolved and calculate the cell survival rate by taking the control group as 100%.

SMILES: CC(=O)O[C@H]1CC(C)(C)C(=C=C/C(C)=C/C=C/C(C)=C/C=C/C=C(C)/C=C/C=C(\C)C(=O)C[C@@]23O[C@]2(C)C[C@@H](O)CC3(C)C)[C@](C)(O)C1 [A, fucoxanthin]
- SOD (U/ml) ([1]; 0.39 μg/ml): 15.38 ± 0.71 U/ml
- SOD (U/ml) ([1]; 0.78 μg/ml): 15.72 ± 0.87 U/ml
- SOD (U/ml) ([1]; 1.56 μg/ml): 15.77 ± 0.83 U/ml
- MDA ([2]; 0.39 μg/ml): 5.12 ± 1.17 µmol/mL
- MDA ([2]; 0.78 μg/ml): 14.62 ± 3.82 µmol/mL
- MDA ([2]; 1.56 μg/ml): 12.34 ± 1.58 µmol/mL
- Error response rate (%) [3]: 50** %
- Latency (seconds) Training [3]: 40.2 ± 6.5 s
- Latency (seconds) Test ([3]; test 24 h later): 240.4 ± 43.2 s
- Number of errors Test ([3]; within 5 minutes): 0.4 ± 0.3
- T-AOC (U/ml) ([4]; 0.39 μg/ml): 1.50 ± 0.54 U/ml
- T-AOC (U/ml) ([4]; 0.78 μg/ml): 1.26 ± 0.37 U/ml
- T-AOC (U/ml) ([4]; 1.56 μg/ml): 1.12 ± 0.13 U/ml
- Error response rate (%) Training [5]: 100%
- Error response rate (%) Test ([5]; retest 24 h later): 50%
- Latency Test ([5]; retest 24 h later): 136.2 ± 25.6 s
- Number of errors Test ([5]; retest 24 h later, within 3 minutes): 0.3 ± 0.31
- Number of errors Training ([5]; within 5 minutes): 1.1 ± 0.56
- Effect on rat embryo neuron injuries caused by cerebral ischemia-reperfusion (rat embryo neuron): can inhibit rat embryo neuron injuries caused by cerebral ischemia-reperfusion
- Morphological detection: apoptotic and necrotic cells ([6]; 0.39 μg/ml): slight decrease in the necrotic cells
- Morphological detection: apoptotic and necrotic cells ([6]; 0.78 μg/ml): The apoptotic cells and the necrotic cells decrease
- Morphological detection: apoptotic and necrotic cells ([6]; 1.56 μg/ml): The apoptotic cells and the necrotic cells decrease
- GSH-PX (U/ml) ([7]; 0.39 μg/ml): 38.17 ± 6.84 U/ml
- GSH-PX (U/ml) ([7]; 0.78 μg/ml): 61.50 ± 51.62 U/ml
- GSH-PX (U/ml) ([7]; 1.56 μg/ml): 34.00 ± 5.29 U/ml
- Cell survival rate (%) ([8]; 0.39 μg/ml, drug 16 h then 5 μM Aβ25-35 24 h): 98.45 ± 15.89 %
- Cell survival rate (%) ([8]; 0.78 μg/ml, drug 16 h then 5 μM Aβ25-35 24 h): 92.36 ± 17.79%
- Cell survival rate (%) ([8]; 1.56 μg/ml, drug 16 h then 5 μM Aβ25-35 24 h): 98.99 ± 9.52 %
- Cell survival rate (%) ([8]; 3.12 μg/ml, drug 16 h then 5 μM Aβ25-35 24 h): 100.98 ± 8.74 %
- Cell survival rate (%) ([8]; 6.25 μg/ml, drug 16 h then 5 μM Aβ25-35 24 h): 103.31 ± 11.93 %
- Cell survival rate (%) ([8]; medicament control group (6.25 μg/ml)): 104.47 ± 20.70%
